Data taken from patent publication US20080299140A1, “Immunogenic Composition and Peptide Sequences for Prevention and Treatment of an Hsv Condition” (priority 2002, published 2008).
Numbering of substitutions follows the chain as printed. Like-named read-outs stand apart in the source and are kept apart here.

Columns and labels:
[1] = tested on: lymphocytes obtained from HSV-1 infected H-2^d mice; test: HSV-primed T-cell responses to gD peptides in HSV-1 infected mice; assay type: cell-based; conditions: for immunodominance of epitopes in HSV-primed T-cell responses: HSV-1 infected H-2^d mice; for T-cell responses recalled in HSV infected mice: HSV infected H-2^d mice (FIG. 6)
Method: Twelve days after the second immunization, spleen and inguinal lymph nodes (LN) were removed and placed into ice-cold serum free HL-1 medium supplemented with 15 mM HEPES, 5×10^−5 M β-mercaptoethanol, 2 mM glutamine, 50 U of penicillin and 50 μg of streptomycin (GIBCO-BRL, Grand Island, N.Y.) (complete medium, CM). The cells were cultured in 96-well plates at 5×10^5 cells/well in CM, with recall or control peptide at 30, 10, 3, 1, or 0.3 μg/ml concentration, as previously described in (BenMohamed et al., 2000 and 2002). The cell suspensions were incubated for 72 h at 37° C. in 5% CO2. One μCi (micro-curie) of (^3H)-thymidine (Dupont MEN, Boston, Mass.) was added to each well during the last 16 h of culture. The incorporated radioactivity was determined by harvesting cells onto glass fiber filters and counted on a Matrix 96 direct ionization-counter (Packard Instruments, Meriden, Conn.). Results were expressed as the mean cpm of cell-associated (^3H)-thymidine recovered from wells containing Ag minus the mean cpm of cell-associated (^3H)-thymidine recovered from wells without Ag (A cpm) (average of triplicate). The Stimulation Index (SI) was calculated as the mean cpm of cell-associated (^3H)-thymidine recovered from wells containing Ag divided by the mean cpm of cell-associated (^3H)-thymidine recovered from wells without Ag (average of triplicate). For all experiments the irrelevant control peptide gB141-165 and the T-cell mitogen Concanavalin A (ConA) (Sigma, St. Louis, Mo.) were used as negative and positive controls, respectively. Proliferation results were confirmed by repeating each experiment twice. A T-cell proliferative response was considered positive when A cpm>1000 and SI>2.
To define the fine specificity of broadly reactive T-cells associated with viral immunity and to explore immunodominance in the context of HSV infection, proliferation of lymphocytes obtained from twenty HSV-1 infected H-2^d mice were evaluated using the twelve gD peptides as Ag (FIG. 6). […] Despite a difference between individual mice, a unique array of T-cell responses was identified for each of the twenty infected mice analyzed.

[2] = target: T1, DR3=HLA-DR(α1*0101,α1*0301) (Homo sapiens, UniProt P01903+P01911, A100K/A102G/A103R/A169T/F55Y/I96L/K41T/L162R/M171V/P40S/Q125H/Q178H/Q39Y/R42S/S66N/T106N/T262R/W38E/Y61H); test: HLA-DR specific binding assay, DR3
T1 construct: endogenous in cells; host or cells: STEILIN (EBV homozygous B cell line)

[3] = target: T2, DR13=HLA-DR(α1*0101,α1*1301) (Homo sapiens, UniProt P01903+P01911, A100E/A169T/K41T/L162R/M171V/P40S/Q125H/Q178H/Q39Y/Q99D/R42S/S66N/T262R/W38E/Y61H); test: HLA-DR specific binding assay, DR13
T2 construct: endogenous in cells; host or cells: 0206AD (EBV homozygous B cell line)

[4] = target: T3, DP401=HLA-DP(α1*0101,α1*0401) (Homo sapiens, UniProt P04440+P20036); test: biochemical; assay type: binding
T3 sequence (P20036 32-260 limits assumed): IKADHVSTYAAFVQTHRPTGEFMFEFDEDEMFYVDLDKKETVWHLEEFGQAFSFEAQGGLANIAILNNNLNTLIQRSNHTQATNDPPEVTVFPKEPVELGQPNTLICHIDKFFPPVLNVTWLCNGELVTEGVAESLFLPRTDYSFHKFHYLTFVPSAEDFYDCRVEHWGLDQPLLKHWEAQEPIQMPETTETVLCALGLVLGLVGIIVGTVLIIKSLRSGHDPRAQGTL
T3 sequence (P04440 30-258): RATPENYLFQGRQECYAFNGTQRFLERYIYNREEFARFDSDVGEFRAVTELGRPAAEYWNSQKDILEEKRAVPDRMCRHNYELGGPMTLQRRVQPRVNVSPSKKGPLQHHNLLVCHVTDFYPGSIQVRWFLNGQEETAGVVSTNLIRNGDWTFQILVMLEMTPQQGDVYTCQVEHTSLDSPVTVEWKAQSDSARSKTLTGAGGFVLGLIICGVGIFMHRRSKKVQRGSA

[5] = target: T4, DR1=HLA-DR(α1*0101,α1*0101) (Homo sapiens, UniProt P01903+P01911, A100R/D57E/F55L/F60I/F76Y/I96L/L162R/M171V/P40L/Q125E/R42F/V115G/Y59C); test: biochemical; assay type: binding; conditions: […]
T4 construct: endogenous in cells; host or cells: EBV homozygous human B cell line

[6] = target: T5, DP402 DP (α1*0101, α1*0402) (Homo sapiens, UniProt P04440+P20036, A65V/A84D/A85E/L207M); test: biochemical; assay type: binding
T5 sequence (P20036 29-260): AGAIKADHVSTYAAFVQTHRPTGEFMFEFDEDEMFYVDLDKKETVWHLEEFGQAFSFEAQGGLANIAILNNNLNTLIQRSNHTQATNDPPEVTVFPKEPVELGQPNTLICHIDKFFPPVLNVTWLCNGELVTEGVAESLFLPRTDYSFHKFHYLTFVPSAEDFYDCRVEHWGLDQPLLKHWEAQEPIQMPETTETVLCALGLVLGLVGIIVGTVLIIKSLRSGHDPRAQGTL
T5 sequence (P04440 30-258 A65V/A84D/A85E): T3 sequence (P04440 30-258) with A36V, A55D, A56E

[7] = target: T6, DR15=HLA-DR(α1*0101,α1*1501) (Homo sapiens, UniProt P01903+P01911); test: HLA-DR specific binding assay, DR15
T6 construct: endogenous in cells; host or cells: EBV homozygous human B cell line

[8] = tested on: HLA-DR and HLA-DP molecules; test: MHC class II binding assays, panel of twelve HLA class II molecules (number of alleles bound); conditions: number of the twelve class II MHC alleles bound; title: Threshold 600 nM/5 alleles
[9] = IC50, DR3, Class II MHC allele DR3
[10] = Class II MHC allele DR1, read-out: IC50, DR1
[11] = read-out: IC50, DR13, Class II MHC allele DR13

Compound	immunodominance of epitopes in HSV-primed T-cell responses [1]	IC50 [2, 9]	IC50 ([2]; IC50 DR3, Table V, […])	IC50 [3]	IC50 ([4]; Class II MHC allele DP401)	IC50 ([4]; Table V, […])	IC50 ([5]; Table V, read-out: IC50 DR1)	IC50 [5, 10]	IC50 ([6]; Class II MHC allele DP402)	IC50 ([6]; Table V, […])	IC50 [7]	Range [8]	IC50 [3, 11]	T-cell responses recalled in HSV infected mice [1]
CC[C@H](C)[C@H](NC(=O)[C@@H]1CCCN1C(=O)[C@H](CS)NC(=O)[C@H](C)NC(=O)CNC(=O)[C@H](CC(C)C)NC(=O)[C@H](CO)NC(=O)[C@H](CCCCN)NC(=O)[C@@H](N)CC(N)=O)C(=O)N[C@@H](CCCNC(=N)N)C(=O)N[C@H](C(=O)N[C@@H](CCC(N)=O)C(=O)N1CCC[C@H]1C(=O)N[C@@H](CCCNC(=N)N)C(=O)N[C@@H](Cc1c[nH]c2ccccc12)C(=O)N[C@@H](CC(N)=O)C(=O)N[C@@H](Cc1ccc(O)cc1)C(=O)N[C@@H](Cc1ccc(O)cc1)C(=O)N[C@@H](CC(=O)O)C(=O)N[C@@H](CO)C(=O)N[C@@H](Cc1ccccc1)C(=O)N[C@@H](CO)C(=O)N[C@@H](C)C(=O)N[C@H](C(=O)N[C@@H](CO)C(=O)N[C@@H](CCC(=O)O)C(=O)N[C@@H](CC(=O)O)C(=O)N[C@@H](CC(N)=O)C(=O)N[C@@H](CC(C)C)C(=O)NCC(=O)N[C@@H](Cc1ccccc1)C(=O)N[C@@H](CC(C)C)C(=O)O)C(C)C)[C@@H](C)O [HSV 33]	subdominant epitopes	66 nM	66 nM	160 nM	83 nM	83 nM	53 nM	53 nM	65 nM	65 nM	2 nM	12	–	–
CC[C@H](C)[C@H](NC(=O)[C@H](CCC(N)=O)NC(=O)[C@@H]1CCCN1C(=O)[C@H](C)NC(=O)[C@H](CCC(=O)O)NC(=O)[C@H](CO)NC(=O)[C@@H]1CCCN1C(=O)[C@H](C)NC(=O)[C@H](CC(N)=O)NC(=O)[C@H](CC(C)C)NC(=O)[C@H](CC(C)C)NC(=O)[C@@H](NC(=O)[C@H](CO)NC(=O)[C@H](CCCNC(=N)N)NC(=O)[C@H](CS)NC(=O)[C@H](C)NC(=O)[C@H](CCCNC(=N)N)NC(=O)[C@H](CCC(=O)O)NC(=O)[C@H](CC(C)C)NC(=O)[C@@H](NC(=O)[C@H](C)NC(=O)[C@H](Cc1ccc(O)cc1)NC(=O)[C@H](Cc1ccc(O)cc1)NC(=O)[C@@H](NC(=O)[C@@H](NC(=O)[C@@H](NC(=O)[C@@H]1CCCN1C(=O)[C@H](CC(C)C)NC(=O)[C@H](CO)NC(=O)[C@@H]1CCCN1C(=O)[C@@H]1CCCN1C(=O)[C@@H](N)CCC(N)=O)[C@@H](C)CC)[C@@H](C)O)C(C)C)C(C)C)C(C)C)C(=O)N[C@H](C(=O)N[C@@H](CCCNC(=N)N)C(=O)O)C(C)C [HSV 36]	immunodominant epitopes	1250 nM	1250 nM	> 100000 nM	615 nM	615 nM	3 nM	3 nM	98 nM	98 nM	18 nM	9	> 100000 nM	–
CC[C@H](C)[C@H](NC(=O)[C@H](CO)NC(=O)[C@@H]1CCCN1C(=O)[C@@H](NC(=O)[C@H](Cc1c[nH]cn1)NC(=O)[C@H](Cc1c[nH]c2ccccc12)NC(=O)[C@H](CC(N)=O)NC(=O)[C@@H]1CCCN1C(=O)[C@@H]1CCCN1C(=O)[C@@H](NC(=O)[C@H](CCC(N)=O)NC(=O)[C@@H]1CCCN1C(=O)[C@H](C)N)[C@@H](C)CC)[C@@H](C)CC)C(=O)N[C@@H](CCC(N)=O)C(=O)N[C@@H](CC(=O)O)C(=O)N[C@@H](C)C(=O)N[C@@H](C)C(=O)N[C@H](C(=O)N1CCC[C@H]1C(=O)N[C@@H](Cc1ccc(O)cc1)C(=O)N[C@@H](Cc1c[nH]cn1)C(=O)N1CCC[C@H]1C(=O)N1CCC[C@H]1C(=O)N[C@@H](C)C(=O)N[C@H](C(=O)N1CCC[C@H]1C(=O)N[C@@H](CC(N)=O)C(=O)N[C@@H](CC(N)=O)C(=O)N[C@@H](CCSC)C(=O)NCC(=O)N[C@@H](CC(C)C)C(=O)O)[C@@H](C)O)[C@@H](C)O [HSV 35]	immunodominant epitopes	19500 nM	19500 nM	> 100000 nM	> 100000 nM	> 100000 nM	3160 nM	3160 nM	> 100000 nM	> 100000 nM	6790 nM	1	> 100000 nM	either low or no response
CC[C@H](C)[C@H](NC(=O)[C@H](CO)NC(=O)[C@H](CC(=O)O)NC(=O)[C@@H](NC(=O)[C@@H](NC(=O)[C@@H](NC(=O)CNC(=O)[C@H](CCC(N)=O)NC(=O)[C@H](CCC(N)=O)NC(=O)[C@H](Cc1ccc(O)cc1)NC(=O)[C@H](C)NC(=O)[C@H](CCC(N)=O)NC(=O)[C@@H]1CCCN1C(=O)[C@H](CO)NC(=O)[C@H](CC(C)C)NC(=O)[C@H](CS)NC(=O)[C@H](C)NC(=O)[C@@H](N)CO)C(C)C)[C@@H](C)O)C(C)C)C(=O)NCC(=O)N[C@@H](CCSC)C(=O)N[C@@H](CC(C)C)C(=O)N1CCC[C@H]1C(=O)N[C@@H](CCCNC(=N)N)C(=O)N[C@@H](Cc1ccccc1)C(=O)N[C@H](C(=O)N1CCC[C@H]1C(=O)N[C@@H](CCC(=O)O)C(=O)N[C@@H](CC(N)=O)C(=O)N[C@@H](CCC(N)=O)C(=O)N[C@@H](CCCNC(=N)N)C(=O)N[C@H](C(=O)N[C@H](C(=O)N[C@@H](C)C(=O)N[C@H](C(=O)N[C@@H](Cc1ccc(O)cc1)C(=O)O)C(C)C)C(C)C)[C@@H](C)O)[C@@H](C)CC [HSV 37]	–	307 nM	307 nM	2050 nM	–	–	4 nM	4 nM	167 nM	167 nM	13 nM	9	–	either low or no response
